Assay results from EP0908457B1, “3-(1,2-benzisothiazol- and isoxazol-5-Y1)-2,4(1H,3H)-pyrimidinedione or thione and 3-(1,2-benzisothiazol- and isoxazol-5-y1)-4(3H)-pyrimidinone or thione herbicidal agents” (BASF AKTIENGESELLSCHAFT, priority 1997, dated 1999).

Experiments:
[1] = test system: Echinochloa oryzoides (Ard.) Fritsch.; assay: Preemergence weed control under flooded paddy conditions, ECHORC (Watergrass (Calif.)); format: in vivo; settings: flooded paddy; for herbicidal effect rating, ECHORC / ECHORC herbicidal effect rating: rated three to four weeks after treatment; for ECHORC: herbicidal effect rating 0-9, three to four weeks after treatment; on herbicidal effect rating, ECHORC: meaning of each grade not given here
Cyperus iria = assay: Preemergence weed control under flooded paddy conditions, CYPIR (Rice Flatsedge); format: in vivo; settings: flooded paddy; for herbicidal effect rating, CYPIR / CYPIR herbicidal effect rating: rated three to four weeks after treatment; for CYPIR: herbicidal effect rating 0-9, three to four weeks after treatment; on herbicidal effect rating, CYPIR: meaning of each grade not given here
[2] = test system: Cyperus serotinus, Rottb.; assay: Preemergence weed control under flooded paddy conditions, CYPSE (Flatsedge); format: in vivo; settings: for herbicidal effect rating, CYPSE: rated three to four weeks after treatment; for CYPSE: herbicidal effect rating 0-9, three to four weeks after treatment; on herbicidal effect rating, CYPSE: meaning of each grade not given here
Sagittaria pygmaea, L. = assay: Preemergence weed control under flooded paddy conditions, SAGPY (Arrowhead (Pygmaea)); format: in vivo; settings: flooded paddy; for herbicidal effect rating, SAGPY / SAGPY herbicidal effect rating: rated three to four weeks after treatment; for SAGPY: herbicidal effect rating 0-9, three to four weeks after treatment; on herbicidal effect rating, SAGPY: meaning of each grade not given here
[3] = test system: Oryza sativa, (L.) Tebonnet; assay: Rice tolerance to post-transplant applications under flooded paddy conditions (Example 187), ORYSAT (Rice, Tebonnet); settings: for herbicidal effect rating ORYSAT / ORYSAT herbicidal effect rating: rated three to four weeks after treatment; for ORYSAT: herbicidal effect rating 0-9, three to four weeks after treatment
[4] = test system: Monochoria vaginalis, Presl.; assay: Preemergence weed control under flooded paddy conditions, MOOVA (Monochoria); format: in vivo; settings: preemergence, flooded paddy, rated three to four weeks after treatment
[5] = Rate 0.0320 kg/ha, preemergence weeds
[6] = Rate 0.0620 kg/ha, preemergence weeds
[7] = Rate 0.1250 kg/ha, preemergence weeds
[8] = Rate 0.2500 kg/ha, preemergence weeds
[9] = 0.0320 kg/ha, preemergence weeds
[10] = 0.0620 kg/ha, preemergence weeds
[11] = 0.1250 kg/ha, preemergence weeds
[12] = 0.2500 kg/ha, preemergence weeds
[13] = Rate 0.0620 kg/ha, preemergence
[14] = Rate 0.1250 kg/ha, preemergence
[15] = Rate 0.2500 kg/ha, preemergence
[16] = Rate 0.0320 kg/ha, preemergence

With CC(Oc1ccccc1-c1nsc2ccc(-n3c(=O)cc(C(F)(F)F)n(C)c3=O)cc12)C(=O)NS(C)(=O)=O (stereo not drawn) [Example 335, Propionamide, 2-{o-{5-[3,6-dihydro-3-methyl-2,6-dioxo-4-(trifluoromethyl)-1(2H)-pyrimidinyl]-1,2-benzisothiazol-3-yl}phenoxy}-N-(methylsulfonyl)-] the “herbicidal effect rating, ECHORC” value [1, 5] was 6.0, the “herbicidal effect rating, ECHORC” value [1, 6] was 7.0 and the “herbicidal effect rating, ECHORC” value [1, 7] was 7.0. For the same compound, the “herbicidal effect rating, ECHORC” value [1, 8] was 9.0, the “herbicidal effect rating, CYPIR” value (Cyperus iria; [5]) was 0.0 and the “herbicidal effect rating, CYPIR” value (Cyperus iria; [6]) was 0.0. The “herbicidal effect rating, CYPIR” value (Cyperus iria; [7]) was 2.0, the “herbicidal effect rating, CYPIR” value (Cyperus iria; [8]) was 2.0 and the “herbicidal effect rating, CYPSE” value [2, 5] was 0.0. The “herbicidal effect rating, CYPSE” value [2, 6] was 0.0, the “herbicidal effect rating, CYPSE” value [2, 7] was 6.0 and the “herbicidal effect rating, CYPSE” value [2, 8] was 6.0. The “herbicidal effect rating, SAGPY” value (Sagittaria pygmaea, L.; [5]) was 0.0, the “herbicidal effect rating, SAGPY” value (Sagittaria pygmaea, L.; [6]) was 0.0 and the “herbicidal effect rating, SAGPY” value (Sagittaria pygmaea, L.; [7]) was 4.0. The “herbicidal effect rating, SAGPY” value (Sagittaria pygmaea, L.; [8]) was 4.0, the “herbicidal effect rating ORYSAT” value ([3]; Rate 0.0320 kg/ha) was 3.0 and the “herbicidal effect rating ORYSAT” value ([3]; Rate 0.0620 kg/ha) was 4.0. The “herbicidal effect rating ORYSAT” value ([3]; Rate 0.1250 kg/ha) was 5.0 and the “herbicidal effect rating ORYSAT” value ([3]; Rate 0.2500 kg/ha) was 7.0.
CC(c1ccccc1)S(=O)(=O)NC(=O)c1nsc2ccc(-n3c(=O)cc(C(F)(F)F)n(C)c3=O)cc12 (stereo not drawn) [Example 427, 1,2-Benzisothiazole-3-carboxamide, 5-[3,6-dihydro-3-methyl-2,6-dioxo-4-(trifluoromethyl)-1(2H)-pyrimidinyl]-N-[(alpha-methylbenzyl)-sulfonyl]-] was tested, and the ECHORC [1, 9] was 7.0, the ECHORC [1, 10] was 7.0 and the ECHORC [1, 11] was 9.0. The ECHORC [1, 12] was 9.0, the CYPIR (Cyperus iria; [9]) was 7.0 and the CYPIR (Cyperus iria; [10]) was 7.0. For the same compound, the CYPIR (Cyperus iria; [11]) was 7.0, the CYPIR (Cyperus iria; [12]) was 9.0 and the CYPSE [2, 9] was 0.0. The CYPSE [2, 10] was 0.0, the CYPSE [2, 12] was 4.0 and the SAGPY (Sagittaria pygmaea, L.; [9]) was 4.0. It also gave an SAGPY (Sagittaria pygmaea, L.; [10]) of 5.0, an SAGPY (Sagittaria pygmaea, L.; [11]) of 6.0 and an SAGPY (Sagittaria pygmaea, L.; [12]) of 9.0. The ORYSAT ([3]; 0.0320 kg/ha) was 0.0, the ORYSAT ([3]; 0.0620 kg/ha) was 0.0 and the ORYSAT ([3]; 0.1250 kg/ha) was 1.0. The ORYSAT ([3]; 0.2500 kg/ha) was 3.0.
For Cn1c(C(F)(F)F)cc(=O)n(-c2ccc3snc(C(C#N)=Cc4cnc[nH]4)c3c2)c1=O [Example 595, 1,2-Benzisothiazole-3-acetonitrile, 5-[3,6-dihydro-3-methyl-2,6-dioxo-4-(trifluoromethyl)-1(2H)-pyrimidinyl]-alpha-(imidazol-5-ylmethylene)-], the “herbicidal effect rating, ECHORC” value [1, 13] was 0.0, the “herbicidal effect rating, ECHORC” value [1, 14] was 3.0 and the “herbicidal effect rating, ECHORC” value [1, 15] was 4.0. For the same compound, the “herbicidal effect rating, CYPIR” value (Cyperus iria; [13]) was 0.0, the “herbicidal effect rating, CYPIR” value (Cyperus iria; [14]) was 2.0 and the “herbicidal effect rating, CYPIR” value (Cyperus iria; [15]) was 4.0. The “herbicidal effect rating, CYPSE” value [2, 14] was 0.0, the “herbicidal effect rating, SAGPY” value (Sagittaria pygmaea, L.; [13]) was 0.0 and the “herbicidal effect rating, SAGPY” value (Sagittaria pygmaea, L.; [14]) was 0.0. For the same compound, the “herbicidal effect rating, SAGPY” value (Sagittaria pygmaea, L.; [15]) was 0.0, the “herbicidal effect rating ORYSAT” value ([3]; Rate 0.0620 kg/ha) was 0.0 and the “herbicidal effect rating ORYSAT” value ([3]; Rate 0.1250 kg/ha) was 0.0. For the same compound, the “herbicidal effect rating ORYSAT” value ([3]; Rate 0.2500 kg/ha) was 2.0.
In the case of Cn1c(C(F)(F)F)cc(=O)n(-c2ccc3snc(-c4ccccc4OCC(=O)NS(=O)(=O)CCl)c3c2)c1=O [Example 344, Acetamide, N-[(chloromethyl)sulfonyl]-2-{o-{5-[3,6-dihydro-3-methyl-2,6-dioxo-4-(trifluoromethyl)-1(2H)-pyrimidinyl]-1,2-benzisothiazol-3-yl}phenoxy}-], the “herbicidal effect rating, ECHORC” value [1, 5] is reported as 4.0, the “herbicidal effect rating, ECHORC” value [1, 6] is reported as 7.0 and the “herbicidal effect rating, ECHORC” value [1, 7] is reported as 7.0. The “herbicidal effect rating, ECHORC” value [1, 8] was 9.0, the “herbicidal effect rating, CYPIR” value (Cyperus iria; [5]) was 6.0 and the “herbicidal effect rating, CYPIR” value (Cyperus iria; [6]) was 6.0. For the same compound, the “herbicidal effect rating, CYPIR” value (Cyperus iria; [7]) was 7.0, the “herbicidal effect rating, CYPIR” value (Cyperus iria; [8]) was 9.0 and the “herbicidal effect rating, CYPSE” value [2, 5] was 6.0. The “herbicidal effect rating, CYPSE” value [2, 6] was 6.0, the “herbicidal effect rating, CYPSE” value [2, 7] was 6.0 and the “herbicidal effect rating, CYPSE” value [2, 8] was 6.0. For the same compound, the “herbicidal effect rating, SAGPY” value (Sagittaria pygmaea, L.; [5]) was 0.0, the “herbicidal effect rating, SAGPY” value (Sagittaria pygmaea, L.; [6]) was 0.0 and the “herbicidal effect rating, SAGPY” value (Sagittaria pygmaea, L.; [7]) was 3.0. The “herbicidal effect rating, SAGPY” value (Sagittaria pygmaea, L.; [8]) was 6.0, the “herbicidal effect rating ORYSAT” value ([3]; Rate 0.0320 kg/ha) was 2.0 and the “herbicidal effect rating ORYSAT” value ([3]; Rate 0.0620 kg/ha) was 5.0. For the same compound, the “herbicidal effect rating ORYSAT” value ([3]; Rate 0.1250 kg/ha) was 5.0 and the “herbicidal effect rating ORYSAT” value ([3]; Rate 0.2500 kg/ha) was 9.0.
For COC(=O)C(C)Oc1ccc(OC)cc1-c1nsc2ccc(-n3c(=O)cc(C(F)(F)F)n(C)c3=O)cc12 (stereo not drawn) [Example 348, Propionic acid, 2-{2-{5-[3,6-dihydro-3-methyl-2,6-dioxo-4-(trifluoromethyl)-1(2H)-pyrimidinyl]-1,2-benzisothiazol-3-yl}-4-methoxyphenoxy}-, methyl ester], the “herbicidal effect rating, ECHORC” value [1, 5] was 6.0, the “herbicidal effect rating, ECHORC” value [1, 6] was 6.0 and the “herbicidal effect rating, ECHORC” value [1, 7] was 7.0. The “herbicidal effect rating, ECHORC” value [1, 8] was 9.0, the “herbicidal effect rating, CYPIR” value (Cyperus iria; [5]) was 0.0 and the “herbicidal effect rating, CYPIR” value (Cyperus iria; [6]) was 0.0. For the same compound, the “herbicidal effect rating, CYPIR” value (Cyperus iria; [7]) was 6.0, the “herbicidal effect rating, CYPIR” value (Cyperus iria; [8]) was 9.0 and the “herbicidal effect rating, CYPSE” value [2, 5] was 0.0. For the same compound, the “herbicidal effect rating, CYPSE” value [2, 6] was 0.0, the “herbicidal effect rating, CYPSE” value [2, 7] was 0.0 and the “herbicidal effect rating, CYPSE” value [2, 8] was 0.0. For the same compound, the “herbicidal effect rating, SAGPY” value (Sagittaria pygmaea, L.; [5]) was 4.0, the “herbicidal effect rating, SAGPY” value (Sagittaria pygmaea, L.; [6]) was 6.0 and the “herbicidal effect rating, SAGPY” value (Sagittaria pygmaea, L.; [7]) was 7.0. The “herbicidal effect rating, SAGPY” value (Sagittaria pygmaea, L.; [8]) was 9.0, the “herbicidal effect rating ORYSAT” value ([3]; Rate 0.0320 kg/ha) was 2.0 and the “herbicidal effect rating ORYSAT” value ([3]; Rate 0.0620 kg/ha) was 3.0. The “herbicidal effect rating ORYSAT” value ([3]; Rate 0.1250 kg/ha) was 4.0 and the “herbicidal effect rating ORYSAT” value ([3]; Rate 0.2500 kg/ha) was 5.0.
Cn1c(C(F)(F)F)cc(=O)n(-c2ccc3snc(C(=O)NS(=O)(=O)CCl)c3c2)c1=O [Example 334, 1,2-Benzisothiazole-3-carboxamide, N-[(chloromethyl)sulfonyl]-5-[3,6-dihydro-3-methyl-2,6-dioxo-4-(trifluoromethyl)-1(2H)-pyrimidinyl]-] was tested, and the “herbicidal effect rating, ECHORC” value [1, 5] was 0.0, the “herbicidal effect rating, ECHORC” value [1, 6] was 0.0 and the “herbicidal effect rating, ECHORC” value [1, 7] was 0.0. For the same compound, the “herbicidal effect rating, ECHORC” value [1, 8] was 3.0, the “herbicidal effect rating, CYPIR” value (Cyperus iria; [5]) was 3.0 and the “herbicidal effect rating, CYPIR” value (Cyperus iria; [6]) was 5.0. For the same compound, the “herbicidal effect rating, CYPIR” value (Cyperus iria; [7]) was 6.0, the “herbicidal effect rating, CYPIR” value (Cyperus iria; [8]) was 6.0 and the “herbicidal effect rating, CYPSE” value [2, 5] was 0.0. For the same compound, the “herbicidal effect rating, CYPSE” value [2, 6] was 0.0, the “herbicidal effect rating, CYPSE” value [2, 7] was 2.0 and the “herbicidal effect rating, CYPSE” value [2, 8] was 2.0. The “herbicidal effect rating, SAGPY” value (Sagittaria pygmaea, L.; [5]) was 0.0, the “herbicidal effect rating, SAGPY” value (Sagittaria pygmaea, L.; [6]) was 0.0 and the “herbicidal effect rating, SAGPY” value (Sagittaria pygmaea, L.; [7]) was 4.0. For the same compound, the “herbicidal effect rating, SAGPY” value (Sagittaria pygmaea, L.; [8]) was 4.0, the “herbicidal effect rating ORYSAT” value ([3]; Rate 0.0320 kg/ha) was 0.0 and the “herbicidal effect rating ORYSAT” value ([3]; Rate 0.0620 kg/ha) was 0.0. The “herbicidal effect rating ORYSAT” value ([3]; Rate 0.1250 kg/ha) was 3.0 and the “herbicidal effect rating ORYSAT” value ([3]; Rate 0.2500 kg/ha) was 3.0.
Cn1c(C(F)(F)F)cc(=O)n(-c2ccc3snc(COCC(=O)O)c3c2)c1=O [Example 293, Acetic acid, {{5-[3,6-dihydro-3-methyl-2,6-dioxo-4-(trifluoromethyl)-1(2H)-pyrimidinyl]-1,2-benzisothiazol-3-yl}methoxy}-] was tested, and the “ECHORC herbicidal effect rating” value [1, 16] was 0.0, the “ECHORC herbicidal effect rating” value [1, 13] was 0.0 and the “ECHORC herbicidal effect rating” value [1, 14] was 0.0. The “ECHORC herbicidal effect rating” value [1, 15] was 0.0, the “CYPIR herbicidal effect rating” value (Cyperus iria; [16]) was 9.0 and the “CYPIR herbicidal effect rating” value (Cyperus iria; [13]) was 9.0. The “CYPIR herbicidal effect rating” value (Cyperus iria; [14]) was 9.0, the “CYPIR herbicidal effect rating” value (Cyperus iria; [15]) was 9.0 and the “MOOVA herbicidal effect rating” value ([4]; Rate 0.0320 kg/ha) was 9.0. The “MOOVA herbicidal effect rating” value ([4]; Rate 0.0620 kg/ha) was 9.0, the “MOOVA herbicidal effect rating” value ([4]; Rate 0.1250 kg/ha) was 9.0 and the “MOOVA herbicidal effect rating” value ([4]; Rate 0.2500 kg/ha) was 9.0. For the same compound, the “SAGPY herbicidal effect rating” value (Sagittaria pygmaea, L.; [16]) was 0.0, the “SAGPY herbicidal effect rating” value (Sagittaria pygmaea, L.; [13]) was 0.0 and the “SAGPY herbicidal effect rating” value (Sagittaria pygmaea, L.; [14]) was 0.0. For the same compound, the “SAGPY herbicidal effect rating” value (Sagittaria pygmaea, L.; [15]) was 6.0, the “ORYSAT herbicidal effect rating” value ([3]; Rate 0.0320 kg/ha) was 0.0 and the “ORYSAT herbicidal effect rating” value ([3]; Rate 0.0620 kg/ha) was 0.0. For the same compound, the “ORYSAT herbicidal effect rating” value ([3]; Rate 0.1250 kg/ha) was 0.0 and the “ORYSAT herbicidal effect rating” value ([3]; Rate 0.2500 kg/ha) was 0.0.
